Usually GI50 stands for the concentration giving 50% growth inhibition. Low values mean more potent growth inhibition, high ones less potent growth inhibition.

Bounds are passed on as bounds.

This passage reports GI50 results from patent US20260062422A1 (Halda Therapeutics OpCo, Inc., priority 2022, published 2026).

In one assay the test system is VCaP cells. Briefly: Cellular growth inhibition assay for VCaP cells, CellTiter-Glo. The assay is classed as cell-based, human. To be noted: Homo sapiens, VCaP, 72 h, 72 hours treatment, CellTiter-Glo 2.0. As to the method:
VCaP cells were purchased from American Type Cell Culture (ATCC Cat #CRL2876) and then seeded on poly-D-lysine coated, black clear-bottom 384-well plates at 5000/well in 25 μL Dulbecco's Modified Eagle Medium (DMEM) supplemented with 10% w/w Fetal bovine serum (FBS) and 1% w/w Pen-Strep. Pen-Strep is a commercially available mixture of penicillin G and streptomycin, which is used in mammalian cell culture media to prevent bacterial contamination. Dulbecco's Modified Eagle Medium (DMEM) supplemented with 10% w/w fetal bovine serum (FBS) and 1% w/w Pen-Strep is herein referred to as Treatment Medium. Following seeding of cells in the plates, the plates were spun at 300×g for 30 seconds, then equilibrated to room temperature for 30 minutes, and then deposited in a humidified tissue culture incubator maintained at 37° C. with 5% CO2.
At 24 hours after seeding of the cells, dilutions of test compound were prepared in DMSO and dissolved in Treatment Medium, to achieve a final DMSO concentration of 0.5% w/w, thereby providing the Test Compound Solution. A 25 μL aliquot of the Test Compound Solution was added to cells in the well plates. An equal volume of a solution containing DMSO and Treatment Medium was used as a negative control. Following treatment of cells with Test Compound Solution or said equal volume of a solution containing DMSO and Treatment Medium, the plates were spun at 300×g for 30 seconds, and then left in an incubator for 72 hours.
At the end of the treatment duration, cell viability was quantified with CellTiter-Glo 2.0 reagent (Promega Cat #G9243). For this purpose, plates were equilibrated to room temperature for 30 minutes, and then 25 μL of CellTiter-Glo 2.0 reagent was added to cells in the plate wells. Plates were then agitated on a shaker for two minutes at 500 rpm and subsequently incubated at room temperature for 10 minutes. Following incubation, the plates were spun at 3000×g for 30 seconds, then sealed with an optical adhesive cover, and luminescence readings were measured with an EnVision Plate Reader.
Data was normalized using zero luminescence for baseline. A four-parameter non-linear regression curve fit was applied to dose-response data in GraphPad Prism data analysis software to determine the half-maximal growth inhibitory concentration (GI50) for each test compound.
(In general: ATP-based viability assays read luminescence as a measure of living cells.)

Assay [1] relates to T-Rex 293 cell line SC3 cells lacking increased expression of androgen receptor protein. Briefly: Cellular growth inhibition, T-Rex 293 SC3 cells without doxycycline, CellTiter-Glo. Particulars: T-Rex 293 SC3 cells not exposed to doxycycline, CellTiter-Glo 2.0. The format is cell-based. As for the experimental part:
(§1) The following types of cells were prepared for this experiment: (i) a T-Rex 293 cell line having increased expression of androgen receptor protein due to exposure to doxycycline and (ii) a T-Rex 293 cell line lacking increased expression of androgen receptor protein. Ability of the test compounds to inhibit proliferation of the foregoing cell types was evaluated according to the procedures set forth below.
(§2) The doxycycline-inducible androgen receptor protein expressing cell line was established using the following protocol: T-Rex 293 cells were purchased from Invitrogen (Cat #R71007) and transfected using Lipofectamine 2000 with the wild-type androgen receptor protein sequence cloned into the pcDNA4/TO vector. Transfected cells were selected using 400 μg/mL Zeocin (Invitrogen Cat #R25001). Following selection, single clones were raised and maintained in Dulbecco's Modified Eagle Medium (DMEM) supplemented with 10% w/w Tetracycline-free fetal bovine serum (FBS) and 250 μg/mL Zeocin. Clones were analyzed for expression of androgen receptor protein in the presence and absence of 10 ng/mL doxycycline (Sigma Cat #D9891), and a single doxycycline-inducible clone (hereinafter “SC3”) was selected for use in downstream assays.
(§3) The SC3 cells were seeded on poly-D-lysine coated, black clear-bottom 384-well plates at 2500/well, in 25 μL Phenol Red Free Dulbecco's Modified Eagle Medium (DMEM) supplemented with 10% w/w charcoal-dextran treated fetal bovine serum (FBS) and 1% w/w pen-strep, with or without 10 ng/mL doxycycline. Pen-Strep is a commercially available mixture of penicillin G and streptomycin, which is used in mammalian cell culture media to prevent bacterial contamination. Phenol Red Free Dulbecco's Modified Eagle Medium (DMEM) supplemented with 10% w/w charcoal-dextran treated fetal bovine serum (FBS) and 1% w/w pen-strep, with or without 10 ng/mL doxycycline is herein referred to as Treatment Medium. Following seeding of cells in the plates, the plates were spun at 300×g for 30 seconds, then equilibrated to room temperature for 30 minutes, and then deposited in a humidified tissue culture incubator maintained at 37° C. with 5% CO2.
(§4) At 24 hours after seeding of the cells, dilutions of test compound were prepared in DMSO and dissolved in Treatment Medium, to achieve a final DMSO concentration of 0.5% w/w, thereby providing the Test Compound Solution. A 25 μL aliquot of the Test Compound Solution was added to cells in the well plates. An equal volume of a solution containing DMSO and Treatment Medium was used as a negative control. Following treatment of cells with Test Compound Solution or said equal volume of a solution containing DMSO and Treatment Medium, the plates were spun at 300×g for 30 seconds, and then left in an incubator for 72 hours. At the end of the treatment duration, cell viability was quantified with CellTiter-Glo 2.0 reagent (Promega Cat #G9243). For this purpose, plates were equilibrated to room temperature for 30 minutes, and then 25 μL of CellTiter-Glo 2.0 reagent was added to cells in the plate wells. Plates were then agitated on a shaker for two minutes at 500 rpm and subsequently incubated at room temperature for 10 minutes. Following incubation, the plates were spun at 3000×g for 30 seconds, then sealed with an optical adhesive cover, and luminescence readings were measured with an EnVision Plate Reader. Data was normalized using zero luminescence for baseline. A four-parameter non-linear regression curve fit was applied to dose-response data in GraphPad Prism data analysis software to determine the half-maximal growth inhibitory concentration (GI50) for each test compound.

The subject of assay [2] is T-Rex 293 cell line SC3 cells having increased expression of androgen receptor protein due to exposure to doxycycline. In words: Cellular growth inhibition, T-Rex 293 SC3 cells with doxycycline (androgen receptor induced), CellTiter-Glo. The assay is classed as cell-based. To be noted: T-Rex 293 SC3 cells with 10 ng/mL doxycycline (increased androgen receptor expression). As to the method:
as §1, §2, §3, §4

Another assay has as its system T47D cells. Briefly: Cellular growth inhibition assay for T47D cells, CellTiter-Glo. The assay is classed as cell-based, human. Particulars: Homo sapiens, T47D, 72 h, 72 hours treatment, CellTiter-Glo 2.0 cell viability. An outline of the steps:
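Cells are plated at 3000/well and allowed 24 h before treatment. Test compound in medium containing 0.5% DMSO is then added, with DMSO-only wells as negative control, and plates are incubated 72 h at 37 °C. ATP luminescence (CellTiter-Glo 2.0) is then fitted to four parameters to derive GI50.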

For the compound `Cc1sc2c(c1C)C(c1ccc(Cl)cc1)=N[C@@H](CC(=O)NCCOCCOCCN(C)c1ncc(C(=O)N[C@H]3C(C)(C)[C@H](Oc4ccc(C#N)c(Cl)c4)C3(C)C)cn1)c1nnc(C)n1-2` [Compound I-2, N-[3-(3-chloro-4-cyano-phenoxy)-2,2,4,4-tetramethyl-cyclobutyl]-2-[2-[2-[2-[[2-[(9S)-7-(4-chlorophenyl)-4,5,13-trimethyl-3-thia-1,8,11,12-tetrazatricyclo[8.3.0.02,6]trideca-2(6),4,7,10,12-pentaen-9-yl]acetyl]amino]ethoxy]ethoxy]ethyl-methylamino]pyrimidine-5-carboxamide], the GI50 in the assay on VCaP cells was under 500 nM; in assay [1] (72 h) it was 1500 to 3000 nM; in assay [2] (72 h), under 500 nM.

Turning to `Cc1sc2c(c1C)C(c1ccc(Cl)cc1)=N[C@@H](CC(=O)NCCCCCCOC1CCN(c3ncc(C(=O)N[C@H]4C(C)(C)[C@H](Oc5ccc(C#N)c(Cl)c5)C4(C)C)cn3)CC1)c1nnc(C)n1-2` [Compound I-23], the 50% growth inhibitory concentration (GI50) (in the assay on VCaP cells; in assay [1] (72 h); in assay [2] (72 h)) was under 500 nM throughout.

Consider `Cc1sc2c(c1C)C(c1ccc(Cl)cc1)=N[C@@H](CC(=O)NCCCCCCCCOC1CCN(c3ncc(C(=O)N[C@H]4C(C)(C)[C@H](Oc5ccc(C#N)c(Cl)c5)C4(C)C)cn3)CC1)c1nnc(C)n1-2` [Compound I-25], for which the GI50 with VCaP cells is over 3000 nM; in assay [1] (72 h), over 3000 nM; in assay [2] (72 h), under 500 nM.

In the case of `Cc1sc2c(c1C)C(c1ccc(Cl)cc1)=N[C@@H](CC(=O)NCCCOCCOC1CCN(c3ncc(C(=O)N[C@H]4C(C)(C)[C@H](Oc5ccc(C#N)c(Cl)c5)C4(C)C)cn3)CC1)c1nnc(C)n1-2` [Compound I-26], the GI50 in the assay on VCaP cells is under 500 nM; in assay [1] (72 h) it was 500 to 1500 nM; in assay [2] (72 h) it was under 500 nM.

Regarding `Cc1sc2c(c1C)C(c1ccc(Cl)cc1)=N[C@@H](CC(=O)NCCOCCCOC1CCN(c3ncc(C(=O)N[C@H]4C(C)(C)[C@H](Oc5ccc(C#N)c(Cl)c5)C4(C)C)cn3)CC1)c1nnc(C)n1-2` [Compound I-27], the 50% growth inhibitory concentration (GI50) in the assay on VCaP cells is under 500 nM; in assay [1] (72 h) it was 500 to 1500 nM; in assay [2] (72 h) it was under 500 nM.

As for `Cc1sc2c(c1C)C(c1ccc(Cl)cc1)=N[C@@H](CC(=O)NCCCOCCCOC1CCN(c3ncc(C(=O)N[C@H]4C(C)(C)[C@H](Oc5ccc(C#N)c(Cl)c5)C4(C)C)cn3)CC1)c1nnc(C)n1-2` [Compound I-29], the GI50 with VCaP cells is under 500 nM; in assay [1] (72 h), 500 to 1500 nM; in assay [2] (72 h) it was under 500 nM.

In the case of `Cc1sc2c(c1C)C(c1ccc(Cl)cc1)=NC(CC(=O)NCCOCCCCOC1CCN(c3ncc(C(=O)N[C@H]4C(C)(C)[C@H](Oc5ccc(C#N)c(Cl)c5)C4(C)C)cn3)CC1)c1nnc(C)n1-2` (some centres unmarked) [Compound I-30], the GI50 (in the assay on VCaP cells; in assay [1] (72 h); in assay [2] (72 h)) was under 500 nM each time.

On to `Cc1sc2c(c1C)C(c1ccc(Cl)cc1)=N[C@@H](CC(=O)NCCCOCCCCOC1CCN(c3ncc(C(=O)N[C@H]4C(C)(C)[C@H](Oc5ccc(C#N)c(Cl)c5)C4(C)C)cn3)CC1)c1nnc(C)n1-2` [Compound I-33], for which the concentration for 50% growth inhibition (GI50) (with VCaP cells; in assay [1] (72 h); in assay [2] (72 h)) was under 500 nM each time.

With `Cc1sc2c(c1C)C(c1ccc(Cl)cc1)=N[C@@H](CC(=O)NCCOCCCCCOC1CCN(c3ncc(C(=O)N[C@H]4C(C)(C)[C@H](Oc5ccc(C#N)c(Cl)c5)C4(C)C)cn3)CC1)c1nnc(C)n1-2` [Compound I-34], the concentration for 50% growth inhibition (GI50) (in the assay with VCaP cells; in assay [1] (72 h); in assay [2] (72 h)) was under 500 nM in each case.

`Cc1sc2c(c1C)C(c1ccc(Cl)cc1)=N[C@@H](CC(=O)NCCCCN1CCN(CC3CCN(c4ncc(C(=O)N[C@H]5C(C)(C)[C@H](Oc6ccc(C#N)c(Cl)c6)C5(C)C)cn4)CC3)CC1)c1nnc(C)n1-2` [Compound I-37, N-((1r,3r)-3-(3-chloro-4-cyanophenoxy)-2,2,4,4-tetramethylcyclobutyl)-2-(4-((4-(4-(2-((S)-4-(4-chlorophenyl)-2,3,9-trimethyl-6H-thieno[3,2-f][1,2,4]triazolo[4,3-a][1,4]diazepin-6-yl)acetamido)butyl)piperazin-1-yl)methyl)piperidin-1-yl)pyrimidine-5-carboxamide]: the GI50 with VCaP cells was under 500 nM; in assay [1] (72 h), 500 to 1500 nM; in assay [2] (72 h), under 500 nM.

Regarding `Cc1sc2c(c1C)C(c1ccc(OC[C@@H]3CCCN(c4cnc(C(=O)N[C@H]5C(C)(C)[C@H](Oc6ccc(C#N)c(Cl)c6)C5(C)C)cn4)C3)cc1)=N[C@@H](C)c1nnc(C)n1-2` [Compound I-588], the figures for the 50% growth inhibitory concentration (GI50) (with T47D cells; in assay [1] (72 h); in assay [2] (72 h)) were 500 to 1500 nM, over 3000 nM and under 500 nM, respectively.

`Cc1sc2c(c1C)C(c1ccc(NC3C[C@@H]4CCC[C@@H](C3)N4c3ncc(C(=O)N[C@H]4C(C)(C)[C@H](Oc5ccc(C#N)c(Cl)c5)C4(C)C)cn3)cc1)=N[C@@H](Cc1ncco1)c1nnc(C)n1-2` (some centres unmarked) [Compound I-629]: the GI50 in assay [1] (72 hours) was over 3000 nM; in assay [2] (72 hours) it was under 500 nM.

`Cc1sc2c(c1C)C(c1ccc(N[C@H]3CCN(c4ncc(C(=O)N[C@H]5C(C)(C)[C@H](Oc6ccc(C#N)c(Cl)c6)C5(C)C)cn4)C[C@@H]3F)cc1)=NC(Cc1ncco1)c1nnc(C)n1-2` (some centres unmarked) [Compound I-630]: the GI50 in assay [1] (72 h) and in assay [2] (72 h) was under 500 nM throughout.

Turning to `Cc1sc2c(c1C)C(c1ccc(N3[C@@H]4CC[C@H]3C[C@@H](Nc3ncc(C(=O)N[C@H]5C(C)(C)[C@H](Oc6ccc(C#N)c(Cl)c6)C5(C)C)cn3)C4)cc1)=N[C@@H](Cc1ncco1)c1nnc(C)n1-2` [Compound I-631], the GI50 in assay [1] (72 hours) is over 3000 nM; in assay [2] (72 hours), under 500 nM.

Take `Cc1sc2c(c1C)C(c1ccc(N3CCC4(CCCN(c5ncc(C(=O)N[C@H]6C(C)(C)[C@H](Oc7ccc(C#N)c(Cl)c7)C6(C)C)cn5)C4)C3)cc1)=N[C@@H](Cc1ncco1)c1nnc(C)n1-2` (some centres unmarked) [Compound I-632]: the GI50 is over 3000 nM in assay [1] (72 h) and under 500 nM in assay [2] (72 h).
